Test results taken from patent US11884905B2, “Fluidic chip for cell culture use, culture vessel, and culture method” (University Public Corporation Osaka, priority 2017, dated 2024).

Assays:
Format in all cases: cell-based
Settings in all cases: culture solution containing 20 μM doxorubicin, 24 hours, optical microscope
[1] = tested on: human hepatoma-derived cells; experiment: Fluidic chip three-dimensional culture with doxorubicin, hepatoma cells (upstream)
Protocol: (§1) Cardiac toxicity known as efficacy and side effect of doxorubicin widely used as an anticancer drug was assessed using the fluidic chip for cell culture use according to the present invention.
(§2) First, five culture vessels 9a each enclosing human hepatoma-derived cells were manufactured, three culture vessels 9b each enclosing human umbilical vein endothelial cells were manufactured, three culture vessels 9c each enclosing human myocardial cells were manufactured, three culture vessels 9d each enclosing human bronchial epithelial cells were manufactured, and three culture vessels 9e each enclosing human fibroblast cells were manufactured. These culture vessels 9a to 9e were subjected to preparatory culture (cultured in three dimensions) for two days in wells 33 of the multi-well plate 32, respectively. The culture vessels were manufactured in the same manner as in the cell culture experiment (1), except that the kinds of the cells to be cultured were changed. FIG. 15 illustrates the photograph of the multi-well plate 32 after the preparatory culture.
(§3) Thereafter, the culture vessels 9a to 9e were set on an optical microscope, and the cultured cells were observed. […] Then, sample cells in good condition in shape were only extracted. […]

human myocardial cells = experiment: Fluidic chip three-dimensional culture with doxorubicin, cardiac toxicity on myocardial cells downstream of hepatoma cells
Protocol: as §1, §2, §3

[2] = tested on: human bronchial epithelial cells; experiment: Fluidic chip three-dimensional culture with doxorubicin, bronchial epithelial cells downstream of hepatoma cells (control)
Protocol: as §1, §2, §3

human fibroblast cells = experiment: Fluidic chip three-dimensional culture with doxorubicin, fibroblast cells downstream of hepatoma cells (control)
Protocol: as §1, §2, §3

## COc1cccc2c1C(=O)c1c(O)c3c(c(O)c1C2=O)C[C@@](O)(C(=O)CO)C[C@@H]3O[C@H]1C[C@H](N)[C@H](O)[C@H](C)O1 [doxorubicin]
[1]
  change in shape of hepatoma cells (infiltrating portions), efficacy as anticancer drug: the infiltrating portions disappear within twenty-four hours
Human myocardial cells
  change in shape of myocardial cells (cardiac toxicity): entirely reduced in size
[2]
  change in shape / growth of bronchial epithelial cells: a branch of a bronchus was wide and continued to grow
Human fibroblast cells
  change in shape / growth of fibroblast cells: the fibroblast cells continued to grow
